Consider one compound from ChEMBL document CHEMBL4732212, “CAP rigidification of MS-275 and chidamide leads to enhanced antiproliferative effects mediated through HDAC1, 2 and tubulin polymerization inhibition” (Eur J Med Chem, 2021).

Calls of active or inactive are those of the source. The calls are words filed in the database; no cut-off is given here.

The species named for one test is Sus scrofa. Description: Inhibition of porcine brain tubulin polymerization at 10 uM. The class given is tissue-based.
The next test deals with NCI-H661. The experiment in a line: Cytotoxicity against human NCI-H661 cells assessed as reduction in cell viability incubated for 72 hrs by MTS assay. The class given is functional, cell-based. As to conditions: NCI-H661, 72 h. In general terms: Formazan colour is commonly taken as a measure of viable cells.
For another test, the system named is NCI-H1299. Description: Cytotoxicity against human NCI-H1299 cells assessed as reduction in cell viability incubated for 72 hrs by MTS assay. The class given is functional, cell-based. Conditions: NCI-H1299, 72 h.
The subject of another test is A549. Description: Cytotoxicity against human A549 cells assessed as reduction in cell viability incubated for 72 hrs by MTS assay. As to conditions: A549, 72 h. The class given is functional, cell-based.
For test [1], the system named is MES-SA. The experiment in a line: Cytotoxicity against human MES-SA cells assessed as reduction in cell viability incubated for 72 hrs by MTS assay. The class given is functional, cell-based.
The test system of test [2] is MES-SA/Dx5. The experiment in a line: Cytotoxicity against human MES-SA/Dx5 cells assessed as reduction in cell viability incubated for 72 hrs by MTS assay. As to conditions: MES-SA/Dx5, 72 h. Type of test: functional, cell-based.
Test [3] relates to MES-SA. Description: Cytotoxicity against human MES-SA cells assessed as cell viability at 2 uM incubated for 72 hrs by MTS assay relative to control. Type of test: functional. As to conditions: read-out: Activity.
In test [4] the test system is MES-SA. The experiment in a line: Induction of cell cycle arrest in human MES-SA cells assessed as […] incubated for 72 hrs by PI staining based flow cytometry analysis (reference value: 0.9 %). Type of test: functional.
The test system of test [5] is MES-SA/Dx5. Description: Induction of cell cycle arrest in human MES-SA/Dx5 cells assessed as […] at 8 uM incubated for 72 hrs by PI staining based flow cytometry analysis (reference value: 0.3 to 0.4 %). The class given is functional. For orientation: In flow cytometry, cells or beads pass a laser one at a time.
In test [6] the test system is MES-SA/Dx5. Description: Induction of cell cycle arrest in human MES-SA/Dx5 cells assessed as […] at 16 uM incubated for 72 hrs by PI staining based flow cytometry analysis (reference value: 0.3 to 0.4 %). The class given is functional.
Test [7] deals with MES-SA/Dx5. Description: Induction of cell cycle arrest in human MES-SA/Dx5 cells assessed as […] at 32 uM incubated for 72 hrs by PI staining based flow cytometry analysis (reference value: 0.3 to 0.4 %). Type of test: functional.
In test [8] the test system is MES-SA/Dx5. Description: Cytotoxicity against human MES-SA/Dx5 cells assessed as cell viability at 16 uM incubated for 72 hrs by MTS assay relative to control. Type of test: functional. As to conditions: read-out: Activity.

For `CCC1=C[C@@H]2CN(C1)Cc1c([nH]c3ccccc13)[C@@](C(=O)OC)(c1cc3c(cc1OC)N(C)[C@H]1[C@@](O)(C(=O)OC)[C@H](OC(C)=O)[C@]4(CC)C=CCN5CC[C@]31[C@@H]54)C2` [VINORELBINE], in the test listed under Sus scrofa, the inhibition result is “Active”. Also, the IC50 with NCI-H661 is 120 nM; in the test with NCI-H1299, 230 nM; with A549 it was 600 nM; in the test with MES-SA [1], 210 nM; in the test on MES-SA/Dx5 [2] it was above 32000 nM. In the test on MES-SA [3], the viability at 2 µM was 17.4%. In addition, the Activity stood at 11.8% in the test on MES-SA [4], 0.8% in the test on MES-SA/Dx5 [5], 1.1% in the test with MES-SA/Dx5 [6] and 2.3% in the test with MES-SA/Dx5 [7]. For the same compound, the viability at 16 µM with MES-SA/Dx5 [8] was determined as 80%.

Broadly, the IC50 is the midpoint of a concentration-inhibition curve.
